# Results taken from patent US10294226B2, “Small molecule inhibitors of the JAK family of kinases” (Janssen Pharmaceutica NV, priority 2016, dated 2019).
# pIC50: −log10 of the molar value. Read-outs that look alike come from different tables or passages of the source.
# Legend:
# P-gp (MDR1) = experiment: MDCK-MDR1 permeability assay; format: in vitro ADME; conditions: dog; for Papp A→B at 60 min, 5 μM: apical to basolateral; for Papp B→A at 60 min, 5 μM: MDCK-MDR1, pH 7.4, basolateral to apical; for efflux ratio at 60 min, 5 μM: pH 7.4, MDCK-MDR1, @ 5 μM, read-out: Papp(B-A)/Papp(A-B) efflux ratio
# Method: (§5) Permeability measurements were conducted according to the Cyprotex protocol using the MDCK-MDR1 cell line obtained from the NIH (Rockville, Md., USA). […] The cells in this assay form a cohesive sheet of a single cell layer filing the surface area of the culture dish, also known as a confluent monolayer, and on day four the test compound was added to the apical side of the membrane and the transport of the compound across the monolayer was monitored over a time period of 60 min.
# (§6) Test compounds were dissolved in DMSO at a concentration of 10 mM. The dosing solutions were prepared by diluting test compound with assay buffer (Hanks Balanced Salt Solution), pH 7.4, at a final concentration of 5 μM. For assessment of apical to basolateral (“A-B”) permeability, buffer was removed from the apical compartment and replaced with test compound dosing solution with or without the permeability glycoprotein (“PgP”, “P-gP”, “Pgp” or “P-gp”) inhibitor elacridar (2 μM). For assessment of basolateral to apical (“B-A”) permeability, buffer was removed from the companion plate and replaced with test compound dosing solution. Incubations were carried out in duplicate at 37° C. in an atmosphere of 5% CO2 with a relative humidity of 95%. […] After incubation for 60 minutes, apical and basolateral samples were diluted and test compounds quantified by LC/MS/MS using an 8-point calibration in the range 0.0039 to 3 μM with appropriate dilution of the samples (receiver dilution factor=1; donor and C0 dilution factor=10). The permeability coefficient (Papp) for each compound was calculated from the following equation: Papp=(dQ/dt)/(C0×S), where dQ/dt is the rate of permeation of the drug across the cells, C0 is the donor compartment concentration at time zero, and S is the area of the cell monolayer.
# (§7) The percent recovery was measured for all incubation conditions.
# (§8) Papp(A-B) gives an indication of permeation extent across the cells in this assay, which is envisaged to model the transcellular transport across Pgp-expressing cells, such as Pgp-expressing gastrointestinal tract cells.
# (§9) The integrity of each monolayer was monitored by examining the permeation of lucifer yellow by fluorimetric analysis.
# JAK3-JH1JH2 = JAK3-JH1JH2 (Homo sapiens (Human), UniProt P52333); experiment: Enzymatic inhibition assay (HTMS); format: biochemical; conditions: 150 μM ATP; read-out: JAK3_I_JH1JH2 IC50
# Sequence of JAK3-JH1JH2 (P52333 512-1124): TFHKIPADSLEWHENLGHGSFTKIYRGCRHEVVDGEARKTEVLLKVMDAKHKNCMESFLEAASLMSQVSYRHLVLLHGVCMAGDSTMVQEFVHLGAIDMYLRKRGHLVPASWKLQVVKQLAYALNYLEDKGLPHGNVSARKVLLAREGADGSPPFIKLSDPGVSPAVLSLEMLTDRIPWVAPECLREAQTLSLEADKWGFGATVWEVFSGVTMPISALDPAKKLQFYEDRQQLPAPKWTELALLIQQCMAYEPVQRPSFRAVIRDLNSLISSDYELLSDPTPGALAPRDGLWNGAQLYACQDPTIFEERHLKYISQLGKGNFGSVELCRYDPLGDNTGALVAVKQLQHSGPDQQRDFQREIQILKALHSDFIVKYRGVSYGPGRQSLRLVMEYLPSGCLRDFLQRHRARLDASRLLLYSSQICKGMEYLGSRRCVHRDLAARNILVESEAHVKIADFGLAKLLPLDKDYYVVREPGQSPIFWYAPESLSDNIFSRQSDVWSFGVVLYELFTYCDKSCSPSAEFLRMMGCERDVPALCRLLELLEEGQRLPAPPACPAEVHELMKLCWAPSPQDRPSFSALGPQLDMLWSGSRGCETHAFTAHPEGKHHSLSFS
# Text: (§1) JAK1-JH1JH2 (574-1154 with a His-GST Tag and a C-terminal tev (ENLYFQ-G) cleavage site), JAK3-JH1JH2 (512-1124 with a GST Tag and a C-terminal tev (ENLYFQ-G) cleavage site), and Tyk2-JH1JH2 (8H_tev_580-1182-C936A-C1142A with a C-terminal tev (ENLYFQ-G) cleavage site) were purified internally. […] LC/MS grade water and acetonitrile (ACN), were purchased from HoneyWell, Burdick & Jackson (Muskegon, Mich., USA). Dimethylsulfoxide 99.8% (DMSO) and trifluoroacetic acid 99.5% (TFA) were purchased from EMD Chemical (Gibbstown, N.J., USA). Adenosine triphosphate (ATP), 4-morpholinepropanesulfonic acid (MOPS), magnesium chloride (MgCl2), ethylenediaminetetraacetic acid (EDTA), dithiothreitol (DTT), formic acid>95% (FA) and Tween-20 were purchased from Sigma (St Louis, Mo., USA). 384-well polypropylene plates, Cat#781280 were purchased from Greiner (Monroe, N.C.), RapidFire™ cartridge A C4 Column (Agilent Technologies, Santa Clara, Calif.).
# (§2) The HTMS experiments were performed in positive ionization mode on a RapidFire 300 instrument (Agilent Technologies, Santa Clara, Calif.), coupled with an ABSiex QTrap 4000 system with an Electrospray Ionization source (RF-MS) (Concord, ON, Canada). […] The entire system was operated using the RapidFire software interfaced with Analyst software for the mass spectrometer.
# (§3) 11-point dosing series were made for each compound by serially diluting 1:3 or 1:4 in DMSO, with point 12 being a DMSO control. From the serial dilution plates, sample was transferred to a 384 wells assay plate (#781280, Greiner, Monroe, N.C.) using Labcyte Echo (Sunnyvale, Calif.), or Biosero ATS (San Diego, Calif.). The compounds were tested in duplicate. Column 12 was used for positive controls, and column 24 contained negative controls with no enzyme added. A compound from our internal collection, with inhibitory activity for JAK isoforms, was used as a reference compound. The final concentration of DMSO was ≤0.25% in a 20 μL reaction. The enzyme reaction was initiated by the addition of 10 μL of enzyme and ATP mixture to 10 μL of substrate solution prepared in reaction buffer (50 mM MOPS pH 7.5, 10 mM MgCl2, 1 mM EDTA, 2 mM DTT, 0.002% Tween-20). The Tyk2 enzyme was pre-incubated with 2 mM ATP for 30 min prior to the reaction initiation. Immediately after the addition of the enzyme to the reaction mixture, the plate was centrifuged at 1000 rpm for 1 minute and incubated at 25° C. for 45 minutes for JAK3 and 90 minutes for JAK1, JAK2 and Tyk2. The reaction was quenched by the addition of 20 μL of 0.5% TFA containing 0.15 μM of internal standard peptide using Multidrop Combi reagent dispenser (Thermo Scientific, Waltham, Mass.). […] After the quench, the assay plate was centrifuged at 3000 rpm for 3 minutes and sealed with pierceable aluminum foil (Cat#06644-001, Agilent) using a PlateLoc (Agilent Technologies, Santa Clara, Calif.). The plates then were transferred on to the RapidFire for the MS analysis. Compound inhibition was assessed by a decrease of the phosphorylated product levels in sample wells compared to the non-inhibited enzyme reaction.
# (§4) The sample analysis on the RapidFire was performed using a mobile phase A1 consisting of Water/TFA/FA (100:0.01:0.1, v/v/v), a mobile phase B1 consisting of ACN/Water/TFA/FA (80:20:0.01:0.1, v/v/v). […] The samples were aspirated directly from the 384-well assay plate and delivered onto RF-MS microscale solid-phase C4 extraction cartridge (Type A). The undesired component such as salt, cofactor, detergent and large protein were washed out and the retained analytes (substrate, product and IS) were coeluted directly onto the AB Siex Qtrap 4000 system.
# JAK1-JH1JH2 = JAK1-JH1JH2 (Homo sapiens (Human), UniProt P23458); experiment: Enzymatic inhibition assay (HTMS); format: biochemical; conditions: 12.5 μM ATP; read-out: JAK1_JH1JH2 IC50
# Sequence of JAK1-JH1JH2 (P23458 574-1154): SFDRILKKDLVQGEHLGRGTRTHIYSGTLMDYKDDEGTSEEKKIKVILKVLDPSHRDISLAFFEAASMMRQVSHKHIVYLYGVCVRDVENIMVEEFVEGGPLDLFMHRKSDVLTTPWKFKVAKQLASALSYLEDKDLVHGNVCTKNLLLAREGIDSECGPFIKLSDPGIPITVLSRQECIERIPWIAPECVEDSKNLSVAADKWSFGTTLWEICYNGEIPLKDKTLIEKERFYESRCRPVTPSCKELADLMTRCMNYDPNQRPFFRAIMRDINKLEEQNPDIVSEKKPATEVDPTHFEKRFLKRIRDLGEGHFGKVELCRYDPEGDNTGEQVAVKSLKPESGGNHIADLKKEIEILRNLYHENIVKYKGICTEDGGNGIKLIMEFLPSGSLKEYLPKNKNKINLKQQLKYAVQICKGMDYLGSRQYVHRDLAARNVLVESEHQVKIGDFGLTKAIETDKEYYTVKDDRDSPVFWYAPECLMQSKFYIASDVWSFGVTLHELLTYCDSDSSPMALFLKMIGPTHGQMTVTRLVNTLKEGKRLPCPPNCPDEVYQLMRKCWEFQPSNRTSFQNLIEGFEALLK
# Text: as §1, §2, §3, §4
# Tyk2-JH1JH2 = Tyk2-JH1JH2 (Homo sapiens (Human), UniProt P29597, C1142A/C936A); experiment: Enzymatic inhibition assay (HTMS); format: biochemical; conditions: 50 μM ATP; read-out: Tyk2_I_JH1JH2 IC50
# Sequence of Tyk2-JH1JH2 (P29597 580-1182 C936A/C1142A): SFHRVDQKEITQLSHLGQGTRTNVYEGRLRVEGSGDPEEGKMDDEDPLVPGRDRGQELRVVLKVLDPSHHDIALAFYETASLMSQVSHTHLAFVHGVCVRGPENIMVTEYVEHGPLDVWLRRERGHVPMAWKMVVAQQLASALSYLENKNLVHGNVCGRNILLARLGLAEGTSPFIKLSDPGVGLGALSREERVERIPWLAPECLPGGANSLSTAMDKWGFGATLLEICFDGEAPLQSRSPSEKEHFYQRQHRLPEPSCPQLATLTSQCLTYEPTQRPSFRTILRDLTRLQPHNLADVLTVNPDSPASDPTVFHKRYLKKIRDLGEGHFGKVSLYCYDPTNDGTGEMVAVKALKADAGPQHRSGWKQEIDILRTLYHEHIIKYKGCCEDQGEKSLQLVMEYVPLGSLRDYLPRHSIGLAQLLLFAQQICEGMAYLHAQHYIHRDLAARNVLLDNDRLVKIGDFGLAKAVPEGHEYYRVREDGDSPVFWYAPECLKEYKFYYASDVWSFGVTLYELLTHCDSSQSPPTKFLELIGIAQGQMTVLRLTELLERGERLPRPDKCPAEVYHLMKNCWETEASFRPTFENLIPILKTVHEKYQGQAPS
# Text: as §1, §2, §3, §4
# [1] = pH 6.5
# IL-2 pSTAT5 (JAK1/JAK3) = IL-2 pSTAT5 (JAK1/JAK3) cellular assay, AlphaLISA in PBMCs; format: cell-based; conditions: PBMC, IL-2 5 ng/mL
# Method: The AlphaLISA assay (based on Alpha Technology from PerkinElmer) was performed by first plating freshly thawed PBMCs (Biological Specialty Corporation) in 384-well plates at 30,000 cells per 4 μL per well in HBSS (Hanks' Balanced Salt Solution) containing 0.1% IgG (immunoglobulin G)-free, protease-free BSA (bovine serum albumin) (Jackson ImmunoResearch Cat. No. 001-000-161). The cells were then treated with 2 μL/well of compounds diluted in DMSO at half-log titrated concentrations, with a highest test concentration of 10 μM and 0.5% final DMSO concentration, for thirty minutes at 37° C. […] The cellular reactions were terminated by the addition of 2 μL/well of lysis buffer (PerkinElmer Cat. No. ALSU-PST5-A10K) followed by an incubation of five minutes at room temperature. 5 μL/well of acceptor mix (PerkinElmer Cat. No. ALSU-PST5-A10K) was added to the cells and incubated in the dark for one hour at room temperature. Then, 5 μL/well of donor mix (PerkinElmer Cat. No. ALSU-PST5-A10K) was added to the cells and incubated in the dark overnight at room temperature. Finally, the plates were read on a PerkinElmer EnVision for detection of the time-resolved fluorescence signal. The percentage of IL-2-dependent pSTAT5 inhibition was determined at the compound test concentrations; and for each compound, a dose curve was generated and the IC50 was calculated. Compound IC50 was calculated by nonlinear regression, sigmoidal dose response analysis of the half-log dilution titration curve of the compound concentration vs. Alpha signal. The acronym “Alpha” stands for amplified luminescent proximity homogeneous assay; the Alpha signal is a luminescent/fluorescent signal.
# IFNα pSTAT4 (JAK1/TYK2) = IFNα pSTAT4 (JAK1/TYK2) cellular assay, AlphaLISA in PBMCs; format: cell-based; conditions: PBMC, IFNα 4 ng/mL
# Method: The AlphaLISA assay (based on Alpha Technology from PerkinElmer) was performed by first plating freshly thawed PBMCs (Biological Specialty Corporation) in 384-well plates at 100,000 cells per 6 μL per well in DMEM (Dulbecco's Modified Eagle Medium) containing 10% FBS (fetal bovine serum) and 1,000 I.U./mL penicillin and 1,000 μg/mL streptomycin. The cells were then treated with 2 μL/well of compounds diluted in DMSO at half-log titrated concentrations, with a highest test concentration of 10 μM and 0.5% final DMSO concentration, for thirty minutes at 37° C. Next, the cells were stimulated with 2 μL/well of IFNα (PBL Assay Science Cat. No. 11101-2) at 4 ng/mL for thirty minutes at 37° C. The cellular reactions were terminated by the addition of 2 μL/well of lysis buffer (PerkinElmer Cat. No. ALSU-PST4-A10K) followed by an incubation of five minutes at room temperature. 4 μL/well of acceptor mix (PerkinElmer Cat. No. ALSU-PST4-A10K) was added to the cells and incubated in the dark for one hour at room temperature. Then, 4 μL/well of donor mix (PerkinElmer Cat. No. ALSU-PST4-A10K) was added to the cells and incubated in the dark overnight at room temperature. Finally, the plates were read on a PerkinElmer EnVision for detection of the time-resolved fluorescence signal. The percentage of IFNα-dependent pSTAT4 inhibition was determined at the compound test concentrations; and for each compound, a dose curve was generated and the IC50 was calculated. Compound IC50 was calculated by nonlinear regression, sigmoidal dose response analysis of the half-log dilution titration curve of the compound concentration vs. Alpha signal. The term “Alpha” is defined in the immediately preceding cellular assay description.
# [2] = In vivo oral (p.o.) dosing, plasma and colon concentrations (Protocols 1 and 2); design: species or system female C57BL/6 mice; conditions: mice, 25 mg/kg p.o.
# Method: These protocols are described below under the heading In vivo Studies. Three non-fasted female C57BL/6 mice were orally administered test compound at a dose of 25 mg/kg p.o. as a solution in 20% hydroxypropyl-beta-cyclodextrin (HPβCD) at a dose volume of 5 mL/kg. Blood samples were collected at 0.5, 2, and 4 h post dose via retro-orbital bleed or venipuncture of the dorsal metatarsal vein. Blood samples were collected into tubes containing anticoagulant (Heparin-Na) and placed on wet ice. […] Colon samples were collected at 4 h post dose. […] The colon was further washed by putting it in 5 mL of saline and shaken for 5 seconds. The colon sample was then patted dry, weighed, and homogenized as 1 part tissue (g) to 4 parts HPLC grade water (mL). Concentrations of the compound in plasma and colon homogenate were determined using a qualified liquid chromatography-triple quadrupole mass spectrometry (LC-MS/MS) method. […] Three non-fasted female C57BL/6 mice were orally administered test compound at a dose of 25 mg/kg p.o. as a solution in 20% HPβCD at a dose volume of 5 mL/kg. Blood samples were collected at 0.5, 2, and 4 h post dose via retro-orbital bleed or dorsal metatarsal vein. Blood samples were collected into tubes containing anticoagulant (Heparin-Na) and placed on wet ice. […] Colon samples were collected at 4 h post dose. […] The colon was further washed by putting it in 5 mL of saline and shaken for 5 seconds. The colon sample was then patted dry, weighed, and homogenized as 1 part tissue (g) to 4 parts HPLC grade water (mL). Concentrations of the compound in plasma and colon homogenate were determined using a qualified liquid chromatography-triple quadrupole mass spectrometry (LC-MS/MS) method.
# [3] = MDCK-MDR1 permeability assay; format: in vitro ADME; conditions: MDCK-MDR1, pH 7.4, @ 5 μM, apical to basolateral, with P-gp inhibitor elacridar (2 μM); read-out: MDCK-MDR1 P^eapp(A-B)
# Method: as §5, §6, §7, §8, §9
# physchem = conditions: thermodynamic from solid
# [4] = MDCK-MDR1, pH 7.4, with elacridar 2 μM, @ 5 μM, with P-gp inhibitor elacridar (2 μM), read-out: MDCK-MDR1 P^eapp(A-B)
# [5] = MDCK-MDR1, pH 7.4, @ 5 μM, without elacridar, read-out: MDCK-MDR1 Papp(A-B)
"Plasma Concentration After p.o. Dosing, Mean ([2]; Time = 0.5 h) [ng/mL]","Plasma Concentration After p.o. Dosing, Mean ([2]; Time = 2 h) [ng/mL]","Colon Concentration After p.o. Dosing, Mean ([2]; Time = 4 h) [ng/g]","Plasma Concentration After p.o. Dosing, Mean ([2]; Time = 4 h) [ng/mL]","Papp A→B at 60 min, 5 μM (P-gp (MDR1); [5]) [×10⁻⁶ cm/s]","Papp B→A at 60 min, 5 μM (P-gp (MDR1); @ 5 μM) [×10⁻⁶ cm/s]","efflux ratio at 60 min, 5 μM (P-gp (MDR1))",Papp A→B [3] [×10⁻⁶ cm/s],"solubility (physchem; pH 6.5, fassif) [µM]",solubility (physchem; simulated gastric fluid) [µM],Structure (SMILES),"Papp A→B at 60 min, 5 μM (P-gp (MDR1); [4]) [×10⁻⁶ cm/s]",pIC50 (JAK3-JH1JH2),pIC50 (JAK1-JH1JH2),pIC50 (Tyk2-JH1JH2),SIF solubility [1] [µM],pIC50 (IL-2 pSTAT5 (JAK1/JAK3)),pIC50 (IFNα pSTAT4 (JAK1/TYK2))
,,,,,,,,,,"Cn1cc(NC(=O)Cc2nc3cnc4[nH]ccc4c3n2[C@H]2CC[C@H](CC#N)CC2)cn1 [Ex. 9, 2-(1-((1r,4r)-4-(Cyanomethyl)cyclohexyl)-1,6-dihydroimidazo[4,5-d]pyrrolo[2,3-b]pyridin-2-yl)-N-(1-methyl-1H-pyrazol-4-yl)acetamide]",0.6,7.10,9.70,8.33,>400,7.95,7.44
347.0,69.1,895.0,84.5,1.3,55.3,43,22,> 400,> 400,Cc1nc2cnc3[nH]ccc3c2n1[C@H]1CC[C@H](CC#N)CC1 [A],,,,,,,
352.7,66.3,6076.7,11.3,0.4,23.5,59,1.7,75,> 400,N#CC[C@H]1CC[C@H](n2c(CO)nc3cnc4[nH]ccc4c32)CC1 [B],,,,,,,
,,,,,,,,,,"N#CC[C@H]1CC[C@H](n2c(CC(=O)Nc3cc[nH]n3)nc3cnc4[nH]ccc4c32)CC1 [Ex. 11, 2-(1-((1r,4r)-4-(Cyanomethyl)cyclohexyl)-1,6-dihydroimidazo[4,5-d]pyrrolo[2,3-b]pyridin-2-yl)-N-(1H-pyrazol-3-yl)acetamide]",0.8,7.52,9.40,8.82,>400,7.31,7.02
